Series [1] relates to Mycolicibacterium smegmatis. The experiment in a line: Antibacterial activity against Mycobacterium smegmatis MC2 155 assessed as growth inhibition. Type of series: functional. Particulars: str. MC2 155.
Series [2] can be described thus: Selectivity index, ratio of GI50 for mouse RAW264.7 cells to MIC for Mycobacterium tuberculosis H37Rv ATCC 27294. Type of series: toxicity. Particulars: read-out: Selectivity Index.
The subject of series [3] is Mycobacterium tuberculosis. The experiment in a line: Antibacterial activity against Mycobacterium tuberculosis H37Rv ATCC 27294 after 2 weeks by spot culture growth inhibition assay. Type of series: functional. Conditions: H37Rv ATCC 27294, 336 h.
Series [4] is described as follows: Cytotoxicity against mouse RAW264.7 cells assessed as growth inhibition after 48 hrs by trypan blue assay. Type of series: cell-based.

Converted amounts (≈) assume the structure as drawn. A value given as a limit tells only on which side of the number the result lay.

A word on the MIC: it is the smallest concentration in the dilution series that meets the test's criterion for growth inhibition. Turning to `O=C(O)/C=C/c1ccc2c(c1)OCO2`, the MIC in series [1] was above 600 µM; in series [3], 312 µM (≈ 60 µg/mL). Also, the selectivity ratio in series [2] was determined as 8.8.

One may read the GI50 as the concentration giving 50% growth inhibition. Take `CC(=O)Nc1ccccc1O`: the MIC is above 600 µM in series [1] and 132 µM (≈ 20 µg/mL) in series [3]. Also, the selectivity ratio in series [2] came out at 31.8. Also, in series [4], the GI50 at 48 h is 4200 µM.

In the case of `COC(=O)/C=C/c1cccc(O)c1`, the figures for the MIC in series [1] and in series [3] were above 600 µM and 224 µM (≈ 39.9 µg/mL), respectively. For the same compound, the selectivity ratio in series [2] stood at 3.8. Further, the GI50 at 48 h in series [4] was 850 µM.

Take `CC(C)=CCC/C(C)=C/COc1ccc(/C=C/C(=O)O)cc1`: the values for the MIC in series [1] and in series [3] were above 600 µM and 66.8 µM (≈ 20.1 µg/mL), respectively. For the same compound, the selectivity ratio in series [2] stood at 3.14. The GI50 at 48 h in series [4] was found to be 210 µM.

As for `COC(=O)/C=C/c1ccc(OC/C=C(\C)CCC=C(C)C)cc1`, the MIC in series [1] is above 600 µM; in series [3], 127 µM (≈ 39.9 µg/mL). For the same compound, the selectivity ratio in series [2] stood at 1.25. Also, the GI50 at 48 h in series [4] amounted to 159 µM.

On to `COC(=O)/C=C/c1ccc(OCC=C(C)C)cc1`, for which the MIC in series [1] is above 600 µM; in series [3], 81.2 µM (≈ 20 µg/mL). Besides, the selectivity ratio in series [2] is 6. For the same compound, in series [4], the GI50 at 48 h came out at 487 µM.

On to `COC(=O)/C=C/c1cccc(OCC=C(C)C)c1`, for which the results for the MIC in series [1] and in series [3] were above 600 µM and 244 µM (≈ 60.1 µg/mL), respectively. In series [2], the selectivity ratio amounted to 12.2.

`COC(=O)/C=C/c1ccccc1OCC=C(C)C`: the minimum inhibitory concentration (MIC) in series [1] is above 600 µM; in series [3], above 406 µM. In addition, in series [2], the selectivity ratio was below 6.4.

As for `CC(C)=CCOc1cccc(/C=C/C(=O)O)c1`, the results for the MIC in series [1] and in series [3] were above 600 µM and 172 µM (≈ 40 µg/mL), respectively. Besides, the selectivity ratio in series [2] came out at 7.53.

With `CC(C)=CCOc1ccccc1/C=C/C(=O)O`, the values for the MIC in series [1] and in series [3] were above 600 µM and 258 µM (≈ 59.9 µg/mL), respectively. In addition, the selectivity ratio in series [2] came out at 6.52.

Turning to `CC(C)=CCOc1ccc(/C=C/C(=O)O)cc1`, the MIC in series [1] is above 600 µM; in series [3], 86.1 µM (≈ 20 µg/mL). Further, the selectivity ratio in series [2] stood at 15.6. Also, in series [4], the GI50 at 48 h was found to be 1340 µM.

Take `COC(=O)/C=C/c1ccccc1O`: the MIC in series [1] is above 600 µM; in series [3] it was 112 µM (≈ 20 µg/mL). Also, in series [2], the selectivity ratio came to 10. Also, in series [4], the GI50 at 48 h is 1120 µM.

As for `O=C(O)/C=C/c1cccc(O)c1`, the minimal inhibitory concentration (MIC) is above 600 µM in series [1] and 366 µM (≈ 60.1 µg/mL) in series [3]. For the same compound, the selectivity ratio in series [2] worked out at 14.5. Also, the GI50 at 48 h in series [4] stood at 5290 µM.

With `CC(=O)Nc1ccc(O)cc1` [ACETAMINOPHEN], the minimal inhibitory concentration (MIC) in series [1] was above 600 µM; in series [3] it was above 661 µM. Moreover, in series [2], the selectivity ratio is below 1.52. Besides, in series [4], the GI50 at 48 h was determined as 1000 µM.

Consider `O=C(O)/C=C/c1ccccc1` [CINNAMIC ACID], for which the MIC in series [1] was above 600 µM; in series [3], 270 µM (≈ 40 µg/mL). Besides, the selectivity ratio in series [2] stood at 24.2. The GI50 at 48 h in series [4] amounted to 6550 µM.

As for `O=C(O)/C=C/c1ccc(O)cc1` [COUMARIC ACID], the figures for the MIC in series [1] and in series [3] were above 600 µM and 244 µM (≈ 40.1 µg/mL), respectively. Further, the selectivity ratio in series [2] is 18.7. In addition, the GI50 at 48 h in series [4] worked out at 4560 µM.

As for `NNC(=O)c1ccncc1` [ISONIAZID], the selectivity ratio in series [2] is 30000. Moreover, the GI50 at 48 h in series [4] was determined as 21900 µM. It took 0.73 µM (≈ 0.1 µg/mL) to inhibit growth in series [3] (MIC).

Take `CC(=O)Nc1cccc(O)c1` [METACETAMOL]: the MIC in series [1] is above 600 µM; in series [3], above 661 µM. In addition, the selectivity ratio in series [2] is below 8.08. The GI50 at 48 h in series [4] came out at 5340 µM.

On to `COC(=O)/C=C/c1ccc(O)cc1` [METHYL P-HYDROXYCINNAMATE], for which the values for the MIC in series [1] and in series [3] were above 600 µM and 224 µM (≈ 39.9 µg/mL), respectively. The selectivity ratio in series [2] was 2.72. Further, the GI50 at 48 h in series [4] came to 609 µM.

As for `O=C(O)/C=C/c1ccccc1O` [O-COUMARIC ACID], the values for the MIC in series [1] and in series [3] were above 600 µM and 122 µM (≈ 20 µg/mL), respectively. Moreover, the selectivity ratio in series [2] was 37.4. The GI50 at 48 h in series [4] worked out at 4560 µM.

Turning to `CO[C@H]1/C=C/O[C@@]2(C)Oc3c(C)c(O)c4c(O)c(c(/C=N/N5CCN(C)CC5)c(O)c4c3C2=O)NC(=O)/C(C)=C\C=C\[C@H](C)[C@H](O)[C@@H](C)[C@@H](O)[C@@H](C)[C@H](OC(C)=O)[C@@H]1C` [RIFAMPIN], the selectivity ratio in series [2] was 14000. Moreover, the 50% growth inhibitory concentration (GI50) at 48 h in series [4] was 850 µM. Also, the lowest concentration to inhibit growth in series [3] (MIC) was 0.0607 µM (≈ 0.05 µg/mL).

Source of the values: ChEMBL document CHEMBL3132819, “2-Hydroxy-substituted cinnamic acids and acetanilides are selective growth inhibitors of Mycobacterium tuberculosis” (Medchemcomm, 2014).
